Series [1] concerns Human promyelocytic leukemia HL-60 cells. Briefly: Cell differentiation of HL-60 cells, nitroblue tetrazolium (NBT) reduction / morphology. It is filed as cell-based. The procedure: Human promyelocytic leukemia HL-60 cells were cultured in RPMI-1640 medium supplemented by 10% heat-inactivated calf serum and 100 U/ml of penicillin plus 100 μg/ml of streptomycin. The flasks containing cells and medium were incubated in an incubator with 5% CO2 at 37° C. Log phase cells were seeded into the medium at a concentration of 1.2×10^5to 1.4×10^5 cells per ml and cultured in flasks containing 5 ml of medium. Each group consisted of three flasks. Different concentrations of coumarin-retinoids were added. At intervals following the addition of coumarin-retinoids to the cultures, a small portion of cells was removed and live cells were counted under a light microscope using a dye-exclusionmethod with trypan blue. Cell differentiation was judged in terms of morphology and nitroblue tetrazolium (NBT) reduction.
For a determination of NBT reducing activity, a portion of the coumarin-retinoid-treated cells was removed at intervals following treatment and centrifuged. After centrifugation, 0.5 ml of 0.1% NBT (containing 100 ng TPA) was added to each tube. The contents of the test tubes were then incubated for 1 hour at 37° C. Cell smears were prepared from the cell sediment and stained using the Wright-Giemsa technique. For each smear prepared, 200 cells were isolated for examination under a light microscope with an oil immersion lens. Cells stained with blue-black granules were considered NBT-positive cells. The 50% differentiation or effective concentration (ED50 or EC50) is shown in terms of molar (M) concentration of the […] tested.
For a determination of cell morphology, a cell smear was prepared at intervals following treatment of cells for each coumarin-retinoid concentration group using the Wright-Giemsa stain technique. Stained cells were counted and classified under a light microscope with an oil immersion lens. After treatment with coumarin-retinoids, the morphological development of HL-60 cells proceeded toward mature granulocytes. This development was manifested by decreased cell volume; a lower nuclei to cytoplasm ratio; smaller or missing nuclei; concentration of chromatin; and the appearance of a certain proportion of intermediate and late granuloblasts (progranulocytes), elongated rod granulocytes, and granulocytes with branched nuclei.
(§1) The protocols of Examples 14 and 21 were used, for the NBT and MTT assays, respectively.

The subject of the next series is HL-60 cells. Description: MTT assay, inhibition of HL-60 cells. The note with it: Homo sapiens; HL-60, Table 15. The format is cell-based, human. The procedure:
Human cancer cell lines (KB, A2780, MCF-7, HL-60, A549) were used. For a monolayer culture, 0.5 ml of trypsin solution ([…]) was added to the flasks for digestion. Microtiter plates (96 well) were used for the cell culture and 200 μl of cell suspension (1200 tumor cells) were placed in each well and incubated at 37° C. for 24 hours. Following the addition of the test compound, the control and treated flasks were placed in a CO2 incubator for 5 day culture. For the MTT assay, 200 μl of MTT solution (5 mg in 10 ml of phosphate buffer) plus the medium were added and incubated for another 4 hours. Following incubation, the supernatant was discarded and 200 μl of DMSO was added to each well. With a mild agitation the OD values were determined by the MR 700 Elisa at 570 nm (reference wavelength was 450 nm). The ED50 of the compound and tumor cell survival rate [formula] as percent inhibition were calculated.
as §1
(In general: Tetrazolium assays rely on reduction of a dye to a coloured formazan, in cell work by metabolically active cells.)

For a further series, the system named is fetus absorption in mice. Briefly: Effect on fetus absorption in mice. It is filed as in vivo. As to the method:
(§2) Female mice were examined by vaginal smear the morning after being caged with male mice, and if sperm or a vaginal plug was discovered, then the mice were determined to be pregnant. The retinoids were administered at the dosage indicated starting on the seventh day of pregnancy and continued once a day for the next ten days. On the 20th day after the female mice were determined to be pregnant, they were sacrificed by cervical dislocation. Both sides of the uterus were checked and the number of living embryos, dead embryos, and absorbed embryos were counted. The living embryos were further examined for bone abnormalities.

For series [2], the system named is bone abnormalities in mouse fetus. Description: Bone abnormalities in mouse fetus. It is filed as in vivo. As to the method:
as §2
After the embryos became transparent, they were dissected and their skeletons were checked by observation under a microscope.

For a further series, the system named is chondrosarcoma. Briefly: Growth of chondrosarcoma in rats. It is filed as in vivo. The following applies: for Body Weight final: in g (unit assumed). The source says: Transplantable chondrosarcomas obtained from Dr. Trown, Hoffman--La Roche Institute of Molecular Biology and Wistar rats obtained from the Breeding Center of Experimental Animals, Chinese Academy of Medical Sciences were used. According to the routine transplantation protocol as described in Cancer Treatment Reports 60(11):1647-1653 (1976) where the small pieces of chondrosarcoma tumor were implanted subcutaneously in the right inguinal region of rats using a trocar. Tumor-bearing rats were randomized to a control group and a treated group. Each group consisted of ten rats. […] Sixty days after transplantation, the rats were sacrificed and the tumor weight was determined. The inhibition rate was calculated according to the following formula: [formula]

As to `CC(=O)c1cc2c(C(=O)O)cc(OC(=O)/C=C(C)/C=C/C=C(C)/C=C/C3=C(C)CCCC3(C)C)cc2oc1=O` [Compound I-4, 3-acetyl-5-carboxy-7-retinoyloxy coumarin], the “NBT (+) %” value worked out at 92% in series [1] (10^-5 M), 84% in series [1] (10^-6 M), 73% in series [1] (10^-7 M) and 15% in series [1] (10^-8 M).

As to `CCOC(=O)c1cc2c(C(=O)O)cc(OC(=O)/C=C(C)/C=C/C=C(C)/C=C/C3=C(C)CCCC3(C)C)cc2oc1=O` [Compound I-19], the “NBT (+) %” value in series [1] (10^-4 M) was 92%; in series [1] (10^-5 M), 84%; in series [1] (10^-6 M), 5%.

For the compound `CC(=O)c1cc2c(COC(=O)/C=C(C)/C=C/C=C(C)/C=C/C3=C(C)CCCC3(C)C)cc(OC(=O)/C=C(C)/C=C/C=C(C)/C=C/C3=C(C)CCCC3(C)C)cc2oc1=O` [Compound I-7], the “NBT (+) %” value in series [1] (10^-5 M) amounted to 85%; in series [1] (10^-6 M), 65%; in series [1] (10^-7 M), 12%.

In the case of `CC(=O)c1cc2c(C)cc(OC(=O)/C=C(C)/C=C/C=C(C)/C=C/C3=C(C)CCCC3(C)C)cc2oc1=O` [Compound I-2], the “NBT (+) %” value stood at 84% in series [1] (10^-5 M), 38% in series [1] (10^-6 M) and 2% in series [1] (10^-7 M).

Take `CCCCCCc1cc2c(C)cc(=O)oc2cc1OC(=O)/C=C(C)/C=C/C=C(C)/C=C/C1=C(C)CCCC1(C)C` [Compound I-34, 4-methyl-6-hexyl-7-retinoyloxy-coumarin]: in the series with HL-60 cells, the half-maximal effective concentration (EC50) was more than 10 µM.

Regarding `CC(=O)c1cc2ccc(OC(=O)/C=C(C)/C=C/C=C(C)/C=C/C3=C(C)CCCC3(C)C)c(C)c2oc1=O` [Compound I-3], the “NBT (+) %” value was 88% in series [1] (10^-5 M), 77% in series [1] (10^-6 M) and 12% in series [1] (10^-7 M).

With `CCOC(=O)c1cc2ccc(OC(=O)/C=C(C)/C=C/C=C(C)/C=C/C3=C(C)CCCC3(C)C)c(C)c2oc1=O` [Compound I-15], the “NBT (+) %” value in series [1] (10^-5 M) was determined as 93%; in series [1] (10^-6 M) it was 84%; in series [1] (10^-7 M), 46%; in series [1] (10^-8 M), 12%.

With `CCOC(=O)c1cc2cc(Cl)c(OC(=O)/C=C(C)/C=C/C=C(C)/C=C/C3=C(C)CCCC3(C)C)cc2oc1=O` [Compound I-18], the “NBT (+) %” value worked out at 44% in series [1] (10^-5 M) and 8% in series [1] (10^-6 M).

`CC1=C(/C=C/C(C)=C/C=C/C(C)=C/C(=O)Oc2cc(C(=O)O)c3cc(C(N)=O)c(=O)oc3c2)C(C)(C)CCC1` [Compound I-26]: the “NBT (+) %” value in series [1] (10^-5 M) came to 97%; in series [1] (10^-6 M), 91%; in series [1] (10^-7 M), 53%; in series [1] (10^-8 M) it was 34%.

As for `CCOC(=O)c1cc2c(OC(=O)/C=C(C)/C=C/C=C(C)/C=C/C3=C(C)CCCC3(C)C)cc(OC(=O)/C=C(C)/C=C/C=C(C)/C=C/C3=C(C)CCCC3(C)C)cc2oc1=O` [Compound I-21], the “NBT (+) %” value was found to be 94% in series [1] (10^-5 M), 80% in series [1] (10^-6 M), 41% in series [1] (10^-7 M) and 17% in series [1] (10^-8 M).

As for `CC(=O)c1cc2ccc(OC(=O)/C=C(C)/C=C/C=C(C)/C=C/C3=C(C)CCCC3(C)C)c(OC(=O)/C=C(C)/C=C/C=C(C)/C=C/C3=C(C)CCCC3(C)C)c2oc1=O` [Compound I-9], the “NBT (+) %” value in series [1] (10^-5 M) came out at 96%; in series [1] (10^-6 M) it was 88%; in series [1] (10^-7 M), 55%; in series [1] (10^-8 M) it was 31%. The “Fetus Absorption, absorbed number/implanted number” value is 0/113 with fetus absorption in mice (20 mg/kg once a day from day 7 of pregnancy) and 0/119 in the series with fetus absorption in mice (40 mg/kg once a day from day 7 of pregnancy). Also, the “Delayed Calcification, Occipital delay/fetus number” value is on record as 0/75 in series [2] (20 mg/kg) and 3/77 in series [2] (40 mg/kg). The “Delayed Calcification, Sternum delay/fetus number” value in series [2] (20 mg/kg) is listed as 0/75; in series [2] (40 mg/kg), 2/77.

As for `CC1=C(/C=C/C(C)=C/C=C/C(C)=C/C(=O)Oc2cc3oc(=O)c(C(N)=O)cc3cc2Cl)C(C)(C)CCC1` [Compound I-27], the “NBT (+) %” value was found to be 88% in series [1] (10^-5 M), 80% in series [1] (10^-6 M) and 17% in series [1] (10^-7 M).

In the series on HL-60 cells, `CC1=C(/C=C/C(C)=C/C=C/C(C)=C/C(=O)Oc2cc(=O)oc3ccc(C)cc23)C(C)(C)CCC1` [Compound I-35, 4-retinoyloxy-6-methyl-coumarin] returned an EC50 of 2.6 µM.

As for `CC(=O)c1cc2c(OC(=O)/C=C(C)/C=C/C=C(C)/C=C/C3=C(C)CCCC3(C)C)c(C(=O)O)ccc2oc1=O` [Compound I-8], the “NBT (+) %” value in series [1] (10^-5 M) stood at 98%; in series [1] (10^-6 M), 69%; in series [1] (10^-7 M), 55%; in series [1] (10^-8 M), 34%.

In turn, `CC1=C(/C=C/C(C)=C/C=C/C(C)=C/C(=O)Oc2ccc3c(C)cc(=O)oc3c2C)C(C)(C)CCC1` [Compound I-30] displayed an EC50 with HL-60 cells of more than 10 µM.

In turn, `CCc1cc2c(C)cc(=O)oc2cc1OC(=O)/C=C(C)/C=C/C=C(C)/C=C/C1=C(C)CCCC1(C)C` [Compound I-31, 4-methyl-6-ethyl-7-retinoyloxy-coumarin] gave an EC50 in the series with HL-60 cells of more than 10 µM.

For `CCOC(=O)c1cc(OC(=O)/C=C(C)/C=C/C=C(C)/C=C/C2=C(C)CCCC2(C)C)cc2oc(=O)c(C(C)=O)cc12` [Compound I-11, 3-acetyl-5-ethoxycarbyl-7-retinoyloxy-coumarin], the “NBT (+) %” value in series [1] (10^-4 M) was found to be 77%; in series [1] (10^-5 M) it was 72%; in series [1] (10^-6 M) it was 49%; in series [1] (10^-7 M), 8%.

In the case of `CC1=C(/C=C/C(C)=C/C=C/C(C)=C/C(=O)Nc2ncnc3c2ncn3C(=O)/C=C(C)/C=C/C=C(C)/C=C/C2=C(C)CCCC2(C)C)C(C)(C)CCC1` [II-A], the “Absorbed Number” value is 10 in the series on fetus absorption in mice (20 mg/kg, implanted number 141, 12 pregnant mice) and 17 in the series on fetus absorption in mice (40 mg/kg, implanted number 181, 15 pregnant mice). For the same compound, the Animals final in the series on chondrosarcoma (2 mg/kg × 10, initial 10) was determined as 9; with chondrosarcoma (5 mg/kg × 10, initial 10 (Table 14)), 9. The “Body Weight final” value with chondrosarcoma (2 mg/kg × 10, initial 74.1) is 130.6; in the series with chondrosarcoma (5 mg/kg × 10, initial 71.7 (Table 14)), 129.2. Further, the “Inhibition rate (%)” value in the series with chondrosarcoma (5 mg/kg × 10 (Table 14)) worked out at 62.6%. For the same compound, the “Tumor Weight” value in the series with chondrosarcoma (5 mg/kg × 10 (Table 14)) stood at 4.0 grams.

`CC1=C(/C=C/C(C)=C/C=C/C(C)=C/C(=O)Oc2cc(OC(=O)/C=C(C)/C=C/C=C(C)/C=C/C3=C(C)CCCC3(C)C)c3c(C)cc(=O)oc3c2)C(C)(C)CCC1` [Compound I-33, 4-methyl-5,7-diretinoyloxy-coumarin] registered an EC50 in the series with HL-60 cells of 3.2 µM.

For the compound `CCCCCCCCCCCCOC(=O)c1cc(OC(=O)/C=C(C)/C=C/C=C(C)/C=C/C2=C(C)CCCC2(C)C)c(OC(=O)/C=C(C)/C=C/C=C(C)/C=C/C2=C(C)CCCC2(C)C)c2oc(=O)c(C(=O)OCC)cc12` [Compound I-12], the “NBT (+) %” value in series [1] (10^-5 M) is on record as 82%; in series [1] (10^-6 M) it was 47%; in series [1] (10^-7 M), 30%; in series [1] (10^-8 M), 0%; in series [1] (10^-9 M) it was 0%.

`CCOC(=O)c1cc2ccc(OC(=O)/C=C(C)/C=C/C=C(C)/C=C/C3=C(C)CCCC3(C)C)cc2oc1=O` [Compound I-17]: the “NBT (+) %” value in series [1] (10^-5 M) was 84%; in series [1] (10^-6 M), 54%; in series [1] (10^-7 M), 2%.

Broadly, the EC50 is the concentration giving half of the maximal effect. A high value points to lower potency in that assay.

The record behind these values is patent US5968940A, “Retinoids and methods of use of same” (priority 1996, dated 1999).
